{"source": "ChEMBL document CHEMBL1773045", "about": "“Conjugate (MTC-220) of muramyl dipeptide analogue and paclitaxel prevents both tumor growth and metastasis in mice” (J Med Chem, 2011)", "key": {"[1]": {"test_system": "4T1", "test": "Antitumor activity against mouse 4T1 cells xenografted in […] mouse assessed as tumor growth inhibition at 3 mg/kg, ip qd for 28 days relative to control", "assay_type": "functional", "settings": "4T1, ip, 672 h, route intraperitoneal, read-out: GI"}, "[2]": {"test_system": "Lewis lung carcinoma cell line", "test": "Antitumor activity against mouse LLC cells xenografted in C57BL/6 mouse assessed as tumor growth inhibition at 6 mg/kg, ip qd for 15 days relative to control", "assay_type": "functional", "settings": "360 h, route intraperitoneal, read-out: GI"}, "[3]": {"test_system": "Lewis lung carcinoma cell line", "test": "Antimetastatic activity against mouse LLC cells xenografted in C57BL/6 mouse assessed as inhibition of lung metastasis at 6 mg/kg, ip qd for 15 days relative to control", "assay_type": "functional, organism-based", "design": "dose 6 mg/kg"}, "[4]": {"test_system": "Mus musculus", "test": "Antimetastatic activity against mouse 4T1 cells xenografted in BALB/c mouse assessed as reduction of myeloid derived suppressor cells accumulation in spleen at 3 mg/kg, ip qd for 23 days by flow cytometry analysis relative to control", "assay_type": "functional", "design": "scale not given: the % may be the effect or the level left", "settings": "route intraperitoneal"}, "[5]": {"test_system": "4T1", "test": "Antimetastatic activity against mouse 4T1 cells xenografted in […] mouse assessed as inhibition of lung metastasis at 3 mg/kg, ip qd for 28 days", "assay_type": "functional, organism-based", "design": "dose 3 mg/kg"}, "[6]": {"test_system": "Mus musculus", "test": "Toxicity in mouse 4T1 cells xenografted […] mouse assessed as decrease in body weight at 3 mg/kg, ip qd for 28 days", "assay_type": "organism-based", "design": "dose 3 mg/kg, route intraperitoneal", "settings": "in vivo, 672 h"}, "[7]": {"test_system": "Mus musculus", "test": "Toxicity in mouse LLC cells xenografted C57BL/6 mouse assessed as decrease in body weight at 6 mg/kg, ip qd for 15 days", "assay_type": "organism-based", "design": "dose 6 mg/kg, route intraperitoneal", "settings": "in vivo, 360 h"}, "[8]": {"test_system": "Mus musculus", "test": "Antimetastatic activity against mouse 4T1 cells xenografted in BALB/c mouse assessed as reduction of myeloid derived suppressor cells accumulation in bone marrow at 3 mg/kg, ip qd for 23 days by flow cytometry analysis relative to control", "assay_type": "functional", "design": "scale not given: the % may be the effect or the level left", "settings": "route intraperitoneal"}}, "note": "Active and inactive are the calls of the source. The calls are words filed in the database; no cut-off is given here."}
{"molecule": "CC(=O)O[C@H]1C(=O)[C@@]2(C)[C@H]([C@H](OC(=O)c3ccccc3)[C@]3(O)C[C@H](OC(=O)[C@H](O)[C@@H](NC(=O)c4ccccc4)c4ccccc4)C(C)=C1C3(C)C)[C@]1(OC(C)=O)CO[C@@H]1C[C@@H]2O", "note": "[PACLITAXEL]", "values": [{"measurement": "inhibition in vivo at 3 mg/kg", "setting": "[1]", "value": 30.5, "unit": "%"}, {"measurement": "inhibition in vivo at 6 mg/kg", "setting": "[2]", "value": 26.2, "unit": "%"}, {"measurement": "growth inhibition (GI)", "setting": "[3]", "value": "inactive"}, {"measurement": "Activity", "setting": "[4]", "value": 46.7, "unit": "%"}, {"measurement": "growth inhibition (GI)", "setting": "[5]", "value": "inactive"}, {"measurement": "Activity", "setting": "[6]", "value": "Non-toxic"}, {"measurement": "Activity", "setting": "[7]", "value": "Non-toxic"}, {"measurement": "Activity", "setting": "[8]", "value": 79.1, "unit": "%"}]}
